Experiments:
Assay type in all cases: cell-based
Saccharomyces cerevisiae = assay: Liquid fungal growth assay in 96-well plates (YPD), Saccharomyces cerevisiae; settings: combinations 1:1 w/w
[1] = system: Saccharomyces cerevisiae wild-type strain BY4742; assay: Saccharomyces cerevisiae liquid culture growth (OD vs untreated control), Example 1; settings: 16 hours at 30° C.
Protocol: A combination of lipopeptides and natamycin was tested for efficacy against Saccharomyces cerevisiae, which is generally recognized as a model organism for testing activity against fungi and which is closely related to Candida. See Smits, G J, et al., “Stress Tolerance in Fungi—To Kill a Spoilage Yeast,” Current Opin Biotechnol., 16(2): 225-30, (2005) and Castrillo, J I, et al., “Yeast as a Touchstone in Post-Genomic Research: Strategies for Integrative Analysis in Functional Genomics,” J Biochem Mol Biol., 37(1): 93-106, (2004).
Saccharomyces cerevisiae wild-type strain BY4742 was grown in liquid YPD in the presence of: (1) natamycin (Haorui Pharma-Chem Inc), (2) the above-described lipopeptide extract, (3) natamycin+lipopeptide extract, and 4) no lipopeptides or natamycin (control). The initial concentration of natamycin before being added to the liquid culture was 1 ppm and the initial concentration of lipopeptide extract was 15 ppm. Final concentration of natamycin in the liquid culture was 0.08 ppm and final concentration of lipopeptide extract was 1.12 ppm, such that the weight to weight ratio of natamycin to lipopeptide in the sample containing both was 1:14. […]
Gowing's Equation was applied, as follows, to determine synergism of lipopeptides with natamycin. […] Thus, X and Y are calculated by subtracting the amount of growth on a treated plate from 100, as shown below. […]

[2] = system: Geotrichum citri-aurantii; assay: Liquid fungal growth assay in 96-well plates, Geotrichum citri-aurantii; settings: each component 2.23 ppm final, combinations 1:1 w/w
Protocol: For each 96 well plate, three separate additions were made to each well. First, 100 μl of potato dextrose broth w/100 ppm chloramphenicol was added. Then 25 μl of each sample (lipopeptides, natamycin, or combo from dilution plate) was supplemented. Finally, 50 μl of DI H2O was added to the blank plate (the plate intended to be left blank for an OD reference) OR 50 μl of 10^5 fungal inoculum was added to each well in its respective plate(s). […] The plates were then covered with lids and placed at 20° C. for 3 days of incubation. After the incubation period, the growth of each well in each plate was rated by optical density at 600 nm using a PerkinElmer Victor plate-reader using the setting “MIC Settings @600 (0.1 s)” that can be found in the Wallac® Victor® software. The results were also roughly assessed visually as cloudy wells (partial growth) appearing in the dilution series where the sample fell off in activity. After an OD was obtained for each well, the relative growth was determined by the following calculation: [(Treatment w/Bacteria)-(Treatment w/o Bacteria)/(Diluent Control w/Bacteria)-(Diluent Control w/o Bacteria)]×100. The positive control wells for bacterial growth were considered acceptable if the average and standard deviation of the OD readings at 600 nm were well above the range of the non-inoculated OD reference wells. […]

Geotrichum candidum = assay: Liquid fungal growth assay in 96-well plates, Geotrichum candidum; settings: combinations 1:1 w/w
Protocol: For each 96 well plate, three separate additions were made to each well. First, 100 μl of potato dextrose broth w/100 ppm chloramphenicol was added. […] Finally, 50 μl of DI H2O was added to the blank plate (the plate intended to be left blank for an OD reference) OR 50 μl of 10^5 fungal inoculum was added to each well in its respective plate(s). […] The plates were then covered with lids and placed at 20° C. for 3 days of incubation. After the incubation period, the growth of each well in each plate was rated by optical density at 600 nm using a PerkinElmer Victor plate-reader using the setting “MIC Settings @600 (0.1 s)” that can be found in the Wallac® Victor® software. The results were also roughly assessed visually as cloudy wells (partial growth) appearing in the dilution series where the sample fell off in activity. After an OD was obtained for each well, the relative growth was determined by the following calculation: [(Treatment w/Bacteria)-(Treatment w/o Bacteria)/(Diluent Control w/Bacteria)-(Diluent Control w/o Bacteria)]×100. The positive control wells for bacterial growth were considered acceptable if the average and standard deviation of the OD readings at 600 nm were well above the range of the non-inoculated OD reference wells. […] Synergy was then determined by Gowing's Equation, set forth above. […]

Penicillium expansum = assay: Liquid fungal growth assay in 96-well plates, Penicillium expansum
Protocol: The effect of (i) natamycin (Haorui Pharma-Chem. Inc.), (ii) a crude extract of lipopeptides from Bacillus subtilis QST713 (prepared as described in Example 1), and (iii) a combination of natamycin and a crude extract of lipopeptides on Penicillium expansum was investigated. A liquid fungal growth assay was performed in 96-well plates to determine whether the combination of lipopeptides and natamycin is synergistic in inhibiting fungal growth. All procedures were conducted aseptically.
For each 96 well plate, three separate additions were made to each well. First, 100 μl of potato dextrose broth w/100 ppm chloramphenicol was added. […]
After the incubation period, the growth of each well in each plate was rated by optical density at 600 nm using a PerkinElmer Victor plate-reader using the setting “MIC Settings @600 (0.1 s)” that can be found in the Wallac® Victor® software. The results were also roughly assessed visually as cloudy wells (partial growth) appearing in the dilution series where the sample fell off in activity.
After an OD was obtained for each well, the relative growth was determined by the following calculation: [(Treatment w/Bacteria)−(Treatment w/o Bacteria)/(Diluent Control w/Bacteria)−(Diluent Control w/o Bacteria)]×100. […]
Synergy was then determined by Gowing's Equation, set forth above. […]

C[C@@H]1C/C=C/C=C/C=C/C=C/[C@H](O[C@@H]2O[C@H](C)[C@@H](O)[C@H](N)[C@@H]2O)C[C@@H]2O[C@](O)(C[C@@H](O)C[C@H]3O[C@@H]3/C=C/C(=O)O1)C[C@H](O)[C@H]2C(=O)O [Natamycin, natamycin]
% of Growth of the Given Compound(s) at 1.12 ppm (Saccharomyces cerevisiae; natamycin series, each component 1.12 ppm final, 30° C. overnight): 97.4%
inhibition at 0.08 ppm ([1]; Saccharomyces cerevisiae, natamycin 0.08 ppm, lipopeptide extract 1.12 ppm final, read-out: growth inhibition (X, Y, Eob = 100 − growth)): 22.1%
growth (OD) normalized to untreated control set at 100% ([1]; natamycin 0.08 ppm final, lipopeptide extract 1.12 ppm final (1:14 w/w), liquid YPD): 77.89%
% of Growth of the Given Compound(s) at 2.23 ppm ([2]; natamycin series): 57.4%
% of Growth of the Given Compound(s) at 2.23 ppm (Geotrichum candidum; natamycin series, each component 2.23 ppm final): 110.4%
Percent Growth (Penicillium expansum; 1.1 ppm final of each component, 3 days at 20° C., OD 600 nm): 102%
% of Growth of the Given Compound(s) at 2.23 ppm (Penicillium expansum; each component 2.23 ppm final, combinations 1:1 w/w): 35.38%

C[C@@H]1[C@H](O)[C@@H](C)/C=C/C=C/CC/C=C/C=C/C=C/C=C/C(O[C@H]2O[C@H](C)[C@@H](O)[C@H](N)[C@@H]2O)CC2O[C@](O)(CC(O)C(O)CCC(O)CC(O)CC(O)CC(=O)O[C@H]1C)CC(O)C2C(=O)O (stereo partly shown) [Nystatin, nystatin]
% of Growth of the Given Compound(s) at 0.56 ppm (Saccharomyces cerevisiae; nystatin series, each component 0.56 ppm final): 96.5%
% of Growth of the Given Compound(s) at 2.23 ppm ([2]; nystatin series): 30.5%
% of Growth of the Given Compound(s) at 1.12 ppm (Geotrichum candidum; nystatin series, each component 1.12 ppm final): 96.2%
